The record followed here is ChEMBL document CHEMBL3769339, “Synthesis of indole-derived allocolchicine congeners exhibiting pronounced anti-proliferative and apoptosis-inducing properties” (Medchemcomm, 2015).

Series [1] concerns BJAB. Description: Antiproliferative activity against human BJAB cells at AC50 after 24 hrs by CASY cell counting method. It counts as functional.
Series [2] concerns BJAB. Description: Antiproliferative activity against human BJAB cells after 24 hrs by CASY cell counting method. It counts as functional, cell-based.
For series [3], the system named is BJAB. In words: Cytotoxicity against human BJAB cells assessed as necrosis at AC50 after 72 hrs by LDH release assay. In kind it is cell-based. For orientation: LDH in the medium is a marker of cell lysis.
Series [4] has as its system BJAB. In words: Induction of apoptosis in human BJAB cells assessed as DNA fragmentation after 72 hrs by flow cytometry. It counts as functional, cell-based. Background: Flow cytometry measures light scatter and fluorescence of single cells or particles in a stream.
The nature of series [5]: Inhibition of sheep tubulin polymerization by fluorescence based assay. Also on record: species or system Ovis aries.
Series [6] relates to BJAB. In words: Antiproliferative activity against human BJAB cells assessed as cell count at 0.5 uM after 24 hrs by CASY cell counting method (reference value: 2.02 10^5/ml). It counts as functional.
The subject of series [7] is BJAB. In words: Antiproliferative activity against human BJAB cells assessed as cell count at 0.005 uM after 24 hrs by CASY cell counting method (reference value: 2.02 10^5/ml). It counts as functional.
A further series is filed under the species Ovis aries. Description: Inhibition of sheep tubulin polymerization at 0.75 to 7.5 uM by fluorescence based assay.
Series [8] has as its system BJAB. In words: Antiproliferative activity against human BJAB cells assessed as cell count at 50 uM after 24 hrs by CASY cell counting method (reference value: 2.02 10^5/ml). It counts as functional.
The subject of series [9] is BJAB. In words: Antiproliferative activity against human BJAB cells assessed as cell count at 100 uM after 24 hrs by CASY cell counting method (reference value: 2.02 10^5/ml). In kind it is functional.
For series [10], the system named is BJAB. In words: Antiproliferative activity against human BJAB cells assessed as cell count at 0.1 uM after 24 hrs by CASY cell counting method (reference value: 2.02 10^5/ml). In kind it is functional.
The test system of series [11] is BJAB. In words: Cytotoxicity against human BJAB cells assessed as necrosis at 5 uM after 1 hr by LDH release assay. It counts as cell-based.
The subject of series [12] is BJAB. In words: Antiproliferative activity against human BJAB cells assessed as cell count at 5 uM after 24 hrs by CASY cell counting method (reference value: 2.02 10^5/ml). In kind it is functional.
Series [13] has as its system BJAB. Description: Antiproliferative activity against human BJAB cells assessed as cell count at 0.05 uM after 24 hrs by CASY cell counting method (reference value: 2.02 10^5/ml). In kind it is functional.
Series [14] relates to BJAB. In words: Antiproliferative activity against human BJAB cells assessed as cell count at 1 uM after 24 hrs by CASY cell counting method (reference value: 2.02 10^5/ml). In kind it is functional.
In series [15] the test system is BJAB. In words: Antiproliferative activity against human BJAB cells assessed as cell count at 0.001 uM after 24 hrs by CASY cell counting method (reference value: 2.02 10^5/ml). It counts as functional.
Series [16] deals with BJAB. Description: Antiproliferative activity against human BJAB cells assessed as cell count at 0.01 uM after 24 hrs by CASY cell counting method (reference value: 2.02 10^5/ml). It counts as functional.
The subject of series [17] is BJAB. Description: Antiproliferative activity against human BJAB cells assessed as cell count at 30 uM after 24 hrs by CASY cell counting method (reference value: 2.02 10^5/ml). It counts as functional.
Series [18] relates to BJAB. Description: Antiproliferative activity against human BJAB cells assessed as cell count at 10 uM after 24 hrs by CASY cell counting method (reference value: 2.02 10^5/ml). It counts as functional.

The structures appear in SMILES notation. The source made the active and inactive calls. The rule behind the calls is not given here.

As a reminder, the IC50 is the concentration that gives 50% inhibition. Read a low IC50 as inhibition by little substance. As usually defined, the AC50 is the concentration giving half of the maximal activity seen. For the molecule `COc1cc2c(c(OC)c1OC)-c1cc3c(ccn3C)cc1C(N)CC2` (racemic), the “inhibition (INH)” value with BJAB [1] worked out at 90%. Further, in the series on BJAB [2], the Activity entry is “Dose-dependent effect” and inhibition was half-maximal at 500 nM (IC50). In addition, the Activity in the series on BJAB [3] is 29%. Besides, in the series with BJAB [4], the AC50 was determined as 5000 nM and the Activity result was “Dose-dependent effect”.
Regarding `COc1cc2c(c(OC)c1OC)-c1cc3c(ccn3C)cc1C(=O)CC2`, the “inhibition (INH)” value in the series with BJAB [1] is on record as 98%. For the same molecule, in the series on BJAB [2], the Activity result was “Dose-dependent effect” and the 50% inhibitory concentration (IC50) is 10 nM. The Activity in the series with BJAB [3] came to 4%. Also, in the series with BJAB [4], the half-maximal activity concentration (AC50) amounted to 50 nM and the Activity entry is “Dose-dependent effect”.
Turning to `COc1cc2c(c(OC)c1OC)-c1ccc3c(ccn3C)c1C(O)CC2` (racemic), the half-maximal inhibitory concentration (IC50) in series [5] came to 228 nM.
Regarding `COc1cc2c(c(OC)c1OC)-c1ccc(OC)c(=O)cc1[C@@H](NC(C)=O)CC2` [COLCHICINE], the midpoint of inhibition in series [5], the IC50, lay at 375 nM. Moreover, in the series with BJAB [2], the Activity entry is “Dose-dependent effect” and the midpoint of inhibition, the IC50, lay at 20 nM. Also, in the series on BJAB [4], the half-maximal activity concentration (AC50) is 30 nM and the Activity entry was “Dose-dependent effect”.
In the case of `COc1cc2c(c(OC)c1OC)-c1cc3c(ccn3C)cc1C(N=[N+]=[N-])CC2` (racemic), in the series with BJAB [1], the “inhibition (INH)” value was 30%. Moreover, the Activity entry was “Dose-dependent effect” with BJAB [2], 1% with BJAB [3] and “Dose-dependent effect” in the series with BJAB [4]. Moreover, in the series on BJAB [2], the IC50 was 50000 nM. The AC50 in the series on BJAB [4] is more than 100000 nM.
As to `COc1cc2c(c(OC)c1OC)-c1cc3c(ccn3C)cc1C(O)CC2` (racemic), the “inhibition (INH)” value in the series on BJAB [1] turned out to be 52%. Besides, the Activity entry in the series with BJAB [2] was “Dose-dependent effect”; in the series with BJAB [3], 7%; with BJAB [4], “Dose-dependent effect”. This molecule returned an IC50 with BJAB [2] of 1 nM. Further, the concentration at half-maximal activity (AC50) in the series with BJAB [4] is 1 nM.
For `COc1cc2c(c(OC)c1OC)-c1cc3c(ccn3C)cc1C(OC(C)=O)CC2` (racemic), the Activity in the series on BJAB [6] is 1.21 ×10⁵ /ml; in the series on BJAB [7], 1.87 ×10⁵ /ml; in the series with BJAB [8], 1.02 ×10⁵ /ml; with BJAB [9], 0.97 ×10⁵ /ml; in the series with BJAB [10] it was 1.17 ×10⁵ /ml; with BJAB [2] it was “Dose-dependent effect”. For the same molecule, the Activity result is given as “Non-toxic” in the series on BJAB [11]; 1.1 ×10⁵ /ml in the series on BJAB [12]; 1.11 ×10⁵ /ml with BJAB [13]; 0% in the series with BJAB [3]; 1.09 ×10⁵ /ml in the series with BJAB [14]; 2 ×10⁵ /ml in the series with BJAB [15]. Also, the Activity in the series on BJAB [16] is 1.9 ×10⁵ /ml; with BJAB [17], 1.12 ×10⁵ /ml; in the series on BJAB [18] it was 1.13 ×10⁵ /ml; in the series on BJAB [4] it was “Dose-dependent effect”. For the same molecule, the inhibition entry in the series listed under Ovis aries was “Active”. Besides, the values for the IC50 (in series [5]; in the series with BJAB [2]) were 125 nM and 10 nM, respectively. Moreover, the “inhibition (INH)” value in the series on BJAB [1] is listed as 89%. Further, the half-maximal activity concentration (AC50) in the series on BJAB [4] was 50 nM.
`COc1ccc(/C=C\c2cc(OC)c(OC)c(OC)c2)cc1O` [COMBRETASTATIN A4]: 90 nM corresponded to half-maximal inhibition in series [5] (IC50). That is a double-digit nanomolar value.
As for `COc1cc2c(c(OC)c1OC)-c1cc3ccn(C)c3cc1C(O)CC2` (racemic), inhibition in series [5] was half-maximal at 264 nM (IC50).
Consider `COc1cc2c(c(OC)c1OC)-c1cc3c(ccn3C)cc1C(NC(C)=O)CC2` (racemic), for which, in the series on BJAB [2], the Activity result was “Dose-dependent effect” and the half-maximal inhibitory concentration (IC50) was more than 100000 nM. Moreover, in the series on BJAB [4], the half-maximal activity concentration (AC50) is more than 100000 nM and the Activity result is “Dose-dependent effect”.
